Results from US12448394B2, “Heterocyclic pyrazole derivatives as type III receptor tyrosine kinase inhibitors” (DEVELOPMENT CENTER FOR BIOTECHNOLOGY, priority 2019, dated 2025).

Tests used:
[1] = system: Molm-14 human acute myeloid leukemia cell with FLT3-ITD mutation; assay: Molm-14 cell proliferation assay (CellTiter 96); type: cell-based; settings: Homo sapiens; Molm-14 cells, 72 hours treatment, CellTiter96; read-out: anti-proliferation activity Molm-14 (FLT3-ITD), IC50 ranking
Method: (§1) Inhibitions of cell growths by compounds were measured using CellTiter™-96 assay. The cytotoxicities of compounds of the invention were evaluated in cell line panels with different signaling pathway dependencies, including MV4-11 human acute myeloid leukemia cell with FLT3-ITD mutation, Molm-14 human acute myeloid leukemia cell with FLT3-ITD mutation, THP-1 human acute monocytic leukemia cell with NRAS G12D mutation, A375 melanoma cell with BRAF V600E mutation, and HCC827 NSCLC cell with EGFR exon 19 deletion mutation.
The compounds disclosed herein were tested in Molm-14 cell proliferation assay to determine their cellular potencies against FLT3 signal pathway dependent cell growths. Molm-14 cells are human acute myeloid leukemia (AML) cells harboring ligand-independent FLT3-ITD activating mutation, which renders the abnormal proliferation of the AML cells FLT3 signaling pathway dependent. Inhibition of FLT3 kinase activity will result in reduced growths and/or cell deaths. […] Briefly, cells were grown in RPMI 1640 medium supplemented with 10% heat inactivated fetal bovine serum and incubated at 37° C. in 5% CO2 atmosphere. Cells were allowed to expand until reaching saturation, at which point they were sub-cultured or harvested for assay use.
(§2) MV4-11, Molm-14, THP-1, A375, and HCC827 cells were seeded into 96-well plates at 6500, 25000, 5000, 2000 and 8000 cells/well, respectively, and incubated at 37° C., 5% CO2 overnight. Then, these seeded cells were treated with increasing concentrations of the test compounds and incubated for another 72 hours. At the end of the incubation, CellTiter96® AQueous One Solution Reagent (Promega, […]) was added and incubated for the additional 2˜4 hours. Cell viability was determined by measuring absorbance at 490 nm using EMax® microplate reader (Molecular Devices, San Jose, CA, USA).

[2] = target: T1, FLT3-D835Y mutant kinase (Homo sapiens, UniProt P36888, D835Y); assay: FLT3-D835Y mutant kinase assay (AlphaScreen); type: biochemical; settings: read-out: Ranking of IC50 values, FLT3-D835Y
T1 construct: purchased SignalChem
T1 sequence (P36888 27-993 D835Y): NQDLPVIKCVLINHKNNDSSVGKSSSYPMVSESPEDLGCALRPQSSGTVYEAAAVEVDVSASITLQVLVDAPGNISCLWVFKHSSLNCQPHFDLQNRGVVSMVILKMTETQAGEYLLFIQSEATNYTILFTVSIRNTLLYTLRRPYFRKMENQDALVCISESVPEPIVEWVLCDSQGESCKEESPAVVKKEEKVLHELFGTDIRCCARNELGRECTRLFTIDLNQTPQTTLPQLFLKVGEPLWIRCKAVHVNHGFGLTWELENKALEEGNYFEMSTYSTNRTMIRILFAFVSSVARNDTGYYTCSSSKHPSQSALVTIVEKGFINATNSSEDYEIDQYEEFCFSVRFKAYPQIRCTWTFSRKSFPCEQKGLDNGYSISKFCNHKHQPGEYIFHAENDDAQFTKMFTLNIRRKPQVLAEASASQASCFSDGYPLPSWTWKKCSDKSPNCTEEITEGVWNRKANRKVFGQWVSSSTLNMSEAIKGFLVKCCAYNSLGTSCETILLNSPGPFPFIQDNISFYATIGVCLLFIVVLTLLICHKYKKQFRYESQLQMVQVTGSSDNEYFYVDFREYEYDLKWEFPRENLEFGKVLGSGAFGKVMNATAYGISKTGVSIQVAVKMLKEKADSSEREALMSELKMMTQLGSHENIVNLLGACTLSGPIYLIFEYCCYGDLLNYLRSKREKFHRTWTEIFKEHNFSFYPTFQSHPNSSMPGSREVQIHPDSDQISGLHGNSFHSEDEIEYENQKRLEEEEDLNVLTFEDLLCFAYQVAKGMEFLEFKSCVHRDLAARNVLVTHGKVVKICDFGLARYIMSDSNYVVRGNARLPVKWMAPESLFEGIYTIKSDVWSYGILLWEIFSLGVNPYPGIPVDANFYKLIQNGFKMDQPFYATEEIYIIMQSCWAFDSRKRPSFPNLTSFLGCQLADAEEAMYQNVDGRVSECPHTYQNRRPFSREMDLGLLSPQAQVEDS
Method: Inhibition of FLT3-D835Y mutant kinase activity by a test compound disclosed herein was estimated by AlphaScreen (PerkinElmer). Standard assay conditions were 1 ng of recombinant FLT3-D835Y mutant kinase (SignalChem) with 6 ng Biotin-conjugated Poly-(Glu 4: Tyr 1) (Cisbio) in the assay buffer (10 μM ATP, 10 mM MOPs, pH7.0, 0.21 mM EDTA, 0.5% glycerol, 1 mg/mL BSA, 0.01% 2-mercaptoethanol, 0.001% Brij35, 10 mM MgCl2) in a final volume of 25 μL. Reactions were incubated at 30° C. for 30 min and stopped by adding 5 μL of 50 mM EDTA. Analysis of resulting product using an AlphaScreen kit and counted with Enspire Alpha (PerkinElmer). […] The IC50 values of inhibitors were determined after carrying out assays with each compound at serially diluted concentrations in duplication. The results were analyzed using linear regression software (GraphPad Prism 5; GraphPad Software Inc.)

[3] = system: MV4-11 human acute myeloid leukemia cell with FLT3-ITD mutation; assay: MV4-11 cell proliferation assay (CellTiter 96); type: cell-based; settings: Homo sapiens, MV4-11, 72 h, MV4-11 cells, 72 hours treatment, CellTiter96; read-out: anti-proliferation activity MV4-11 (FLT3-ITD), IC50 ranking
Method: as §1
The compounds disclosed herein were tested in MV4-11 cell proliferation assay to determine their cellular potencies against FLT3 signal pathway dependent cell growths. MV4-11 cells are human acute myeloid leukemia (AML) cells harboring ligand-independent FLT3-ITD activating mutation, which renders the abnormal proliferation of AML cells FLT3 signaling pathway dependent. Inhibition of FLT3 kinase activity will result in reduced growths and/or cell deaths. MV4-11 cells (catalog #CRL-9591) were obtained from the American Type Culture Collection (ATCC, Manassas, VA). Briefly, cells were grown in IMDM medium supplemented with 10% heat inactivated fetal bovine serum and incubated at 37° C. in 5% CO2 atmosphere. Cells were allowed to expand until reaching saturation, at which point they were sub-cultured or harvested for assay use.
as §2

CN(C)c1ccc(-c2cc3c(s2)Cc2c(-c4ccc5cnn(C)c5c4)n[nH]c2-3)cn1 [Compound 5, N,N-dimethyl-5-(3-(1-methyl-1H-indazol-6-yl)-1,4-dihydrothieno [2′,3′:4,5]cyclopenta[1,2-c]pyrazol-6-yl)pyridin-2-amine]
IC50 [1]: 0.1 to 0.3 µM | IC50 [2]: 0.001 to 0.01 µM | IC50 [3]: 0.03 to 0.1 µM

c1cc(-c2cc3c(s2)Cc2c(-c4ccc5cn[nH]c5c4)n[nH]c2-3)ccc1CN1CCOCC1 [Compound 6, 4-(4-(3-(1H-indazol-6-yl)-1,4-dihydrothieno[2′,3′:4,5]cyclopenta[1,2-c]pyrazol-6-yl)benzyl)morpholine]
IC50 [1]: < 0.03 µM | IC50 [2]: < 0.001 µM | IC50 [3]: < 0.03 µM

C[C@@H]1CN(Cc2ccc(-c3cc4c(s3)Cc3c(-c5ccc6cn[nH]c6c5)n[nH]c3-4)cc2)C[C@H](C)O1 [Compound 7, (2S,6R)-4-(4-(3-(1H-indazol-6-yl)-1,4-dihydrothieno[2′,3′:4,5]cyclopenta [1,2-c]pyrazol-6-yl)benzyl)-2,6-dimethylmorpholine]
IC50 [1]: < 0.03 µM | IC50 [2]: 0.001 to 0.01 µM | IC50 [3]: < 0.03 µM

Cn1ncc2ccc(-c3n[nH]c4c3Cc3sc(-c5ccc(CN6CCOCC6)cc5)cc3-4)cc21 [Compound 8, 4-(4-(3-(1-methyl-1H-indazol-6-yl)-1,4-dihydro-thieno[2′,3′:4,5]cyclopenta [1,2-c]pyrazol-6-yl)benzyl) morpholine]
IC50 [1]: 0.03 to 0.1 µM | IC50 [2]: 0.001 to 0.01 µM | IC50 [3]: < 0.03 µM

C[C@@H]1CN(Cc2ccc(-c3cc4c(s3)Cc3c(-c5ccc6cnn(C)c6c5)n[nH]c3-4)cn2)C[C@H](C)O1 [Compound 9, (2S,6R)-2,6-dimethyl-4-((5-(3-(1-methyl-lH-indazol-6-yl)-1,4-dihydro-thieno[2′,3′:4,5]cyclopenta [1,2-c]pyrazol-6-yl)pyridin-2-yl)methyl) morpholine]
IC50 [1]: < 0.03 µM | IC50 [2]: < 0.001 µM | IC50 [3]: < 0.03 µM

Cn1ncc2ccc(-c3n[nH]c4c3Cc3sc(-c5ccc(CN6CCOCC6)nc5)cc3-4)cc21 [Compound 10, 4-((5-(3-(1-methyl-1H-indazol-6-yl)-1,4-dihydro-thieno[2′,3′:4,5]cyclopenta [1,2-c]pyrazol-6-yl)pyridin-2-yl)methyl)morpholine]
IC50 [1]: < 0.03 µM | IC50 [2]: < 0.001 µM | IC50 [3]: < 0.03 µM

Cc1ccc(-c2cc3c(s2)Cc2c(-c4ccc5cnn(C)c5c4)n[nH]c2-3)cn1 [Compound 11, 3-(1-methyl-1H-indazol-6-yl)-6-(6-methylpyridin-3-yl)-1,4-dihydrothieno [2′,3′:4,5]cyclopenta[1,2-c] pyrazole]
IC50 [1]: 0.03 to 0.1 µM | IC50 [2]: < 0.001 µM | IC50 [3]: < 0.03 µM

C[C@@H]1CN(Cc2cccc(-c3cc4c(s3)Cc3c(-c5ccc6cnn(C)c6c5)n[nH]c3-4)c2)C[C@H](C)O1 [Compound 12, (2S,6R)-2,6-dimethyl-4-(3-(3-(1-methyl-1H-indazol-6-yl)-1,4-dihydrothieno [2′,3′:4,5]cyclopenta[1,2-c]pyrazol-6-yl)benzyl) morpholine]
IC50 [1]: 0.1 to 0.3 µM | IC50 [2]: 0.001 to 0.01 µM | IC50 [3]: 0.03 to 0.1 µM

Cn1ncc2ccc(-c3n[nH]c4c3Cc3sc(-c5cccc(CN6CCOCC6)c5)cc3-4)cc21 [Compound 13, 4-(3-(3-(1-methyl-1H-indazol-6-yl)-1,4-dihydro-thieno[2′,3′:4,5]cyclopenta [1,2-c]pyrazol-6-yl)benzyl) morpholine]
IC50 [1]: 0.03 to 0.1 µM | IC50 [2]: 0.001 to 0.01 µM | IC50 [3]: 0.03 to 0.1 µM

CN1CCN(Cc2cccc(-c3cc4c(s3)Cc3c(-c5ccc6cnn(C)c6c5)n[nH]c3-4)c2)CC1 [Compound 14, 3-(1-methyl-1H-indazol-6-yl)-6-(3-((4-methylpiperazin-1-yl)methyl)phenyl)-1,4-dihydrothieno [2′,3′:4,5]cyclopenta[1,2-c] pyrazole]
IC50 [1]: 0.03 to 0.1 µM | IC50 [2]: 0.001 to 0.01 µM | IC50 [3]: < 0.03 µM

CN1CCN(C(=O)c2ccc(-c3cc4c(s3)Cc3c(-c5ccc6cnn(C)c6c5)n[nH]c3-4)cc2)CC1 [Compound 15, (4-(3-(1-methyl-1H-indazol-6-yl)-1,4-dihydrothieno[2′,3′:4,5]cyclopenta[1,2-c]pyrazol-6-yl)phenyl)(4-methyl-piperazin-1-yl)methanone]
IC50 [1]: < 0.03 µM | IC50 [2]: < 0.001 µM | IC50 [3]: < 0.03 µM

C[C@@H]1CN(Cc2ccc(-c3cc4c(s3)Cc3c(-c5ccc6cn[nH]c6c5)n[nH]c3-4)cn2)C[C@H](C)O1 [Compound 16, (2R,6S)-4-((5-(3-(1H-indazol-6-yl)-1,4-dihydro-thieno[2′,3′:4,5]cyclopenta [1,2-c]pyrazol-6-yl)pyridin-2-yl)methyl)-2,6-dimethylmorpholine]
IC50 [1]: < 0.03 µM | IC50 [2]: < 0.001 µM | IC50 [3]: < 0.03 µM

Cc1cc(-c2cc3c(s2)Cc2c(-c4ccc5cnn(C)c5c4)n[nH]c2-3)ccn1 [Compound 17, 3-(1-methyl-1H-indazol-6-yl)-6-(2-methylpyridin-4-yl)-1,4-dihydrothieno [2′,3′:4,5]cyclopenta[1,2-c] pyrazole]
IC50 [1]: 0.03 to 0.1 µM | IC50 [2]: 0.001 to 0.01 µM | IC50 [3]: < 0.03 µM

c1cc(CN2CCOCC2)ncc1-c1cc2c(s1)Cc1c(-c3ccc4cn[nH]c4c3)n[nH]c1-2 [Compound 18, 4-((5-(3-(1H-indazol-6-yl)-1,4-dihydrothieno[2′,3′:4,5]cyclopenta[1,2-c]pyrazol-6-yl)pyridin-2-yl)methyl) morpholine]
IC50 [1]: < 0.03 µM | IC50 [2]: 0.001 to 0.01 µM | IC50 [3]: < 0.03 µM

Cn1ncc2ccc(-c3n[nH]c4c3Cc3sc(-c5ccc(CN6CCOCC6)cn5)cc3-4)cc21 [Compound 95, 4-((6-(3-(1-methyl-1H-indazol-6-yl)-1,4-dihydro-thieno[2′,3′:4,5]cyclopenta [1,2-c]pyrazol-6-yl)pyridin-3-yl)methyl) morpholine]
IC50 [2]: < 0.001 µM
